Data on 2 compounds can be found in patent US10993987B2 (Sublimity Therapeutics Limited, priority 2014, dated 2021).

The nature of series [1]: Example 11 emulsion stability: time point when crystallisation was observed (polarised light microscopy). The conditions noted are these: for emulsion stability compared to sodium dodecyl sulfate (SDS): as aqueous phase surfactant of the cyclosporin emulsion. Format: physicochemical. The method, then: Emulsions were prepared by mixing an oil phase and an aqueous phase, as described in Example 1. The oil phase was consistent for all emulsions of this example. The emulsion aqueous phase mixed was one of three aqueous mixtures. The three aqueous phases differed in the amount of surfactant, 0.7%, 1.3% and 2.5%, and water.
The emulsion was prepared by mixing the oil phase and aqueous phase in a oil:aqueous phase ratio of 1:5. The experiments were performed in triplicate, N=3. In order to replicate current manufacturing conditions as much as possible the following procedure was carried out: • Identical size beakers were used to ensure minimal variation between experiments • Identical submersible magnetic stirrers were placed in each beaker to keep the emulsions under constant magnetic stirring, and the same rpm stir rate used for each • Hot plates were used to maintain a constant emulsion temperature of 65° C. • Emulsions were kept covered with aluminium foil during the process
Sampling of the emulsion was carried out at various time points using disposable pipettes to avoid cross contamination.
(§1) Samples were withdrawn from each emulsion at half hour time intervals starting at time zero (t0) using a disposable pipette. Drops of emulsion were placed on a glass slide, pre heated on a hot plate. The sample was covered with a cover slip and a small amount of pressure applied to form a thin film of emulsion. The samples were allowed to solidify to room temperature before being viewed at ×50 and ×100 objective lens under polarised light to check for the presence of crystals. Results were recorded as optical photomicrographs with three images taken of each emulsion at each time point. Images documenting crystal growth and size with respect to time within the sample emulsion as well as background oil droplet size were collected.

The nature of series [2]: Example 11 emulsion droplet size by photomicrographs. In kind it is physicochemical.
Excerpt: as §1
Photomicrographs of the emulsions enabled the investigation of the droplet size as well as crystal formation. Smaller, more uniform droplet size was preferred.

Structures are written as SMILES.

Consider `CCCCCCCCCCCCCCCCCCOS(=O)(=O)[O-].[Na+]` [Sodium n-Octadecyl Sulfate], for which, in series [1], the “emulsion stability compared to sodium dodecyl sulfate (SDS)” value is “comparable to that of sodium dodecyl sulfate”. Also, the “emulsion stability among tested surfactants” value in series [1] (each concentration (0.7%, 1.3%, 2.5% in aqueous phase)) is on record as “best stability for each concentration”. Moreover, the “emulsion droplet characteristics (smaller, more uniform droplet size preferred)” value in series [2] is listed as “preferred droplet characteristics were observed”.
As for `CCCCCCCCOS(=O)(=O)[O-].[Na+]` [Sodium n-Octyl Sulfate], the “emulsion stability compared to sodium dodecyl sulfate (SDS)” value in series [1] is reported as “comparable to that of sodium dodecyl sulfate”. In addition, the “emulsion droplet characteristics (smaller, more uniform droplet size preferred)” value in series [2] is “preferred droplet characteristics were observed”.
